Key:
[1] = Apparent permeability across apical to basolateral side of MDCK cells; type: ADME, cell-based, Canis lupus familiaris; settings: dog
[2] = Oral bioavailability in human; type: ADME, organism-based; settings: in vivo
[3] = Fraction of the dose absorbed in rat; type: ADME, organism-based; settings: in vivo, read-out: Fabs
[4] = test system: Rattus norvegicus; experiment: (§1) Oral bioavailability in rat; type: ADME, organism-based; settings: in vivo
[5] = as §1; type: ADME, organism-based; settings: in vivo

Row | Papp A→B [1] [×10⁻⁶ cm/s] | bioavailability [2] [%] | Fa [3] [%] | F [4] [%] | bioavailability [5] [%] | SMILES
1 | 1 | 3 | 0.5 | 0.1 | – | COCCCOc1cc(C[C@@H](C[C@H](N)[C@@H](O)C[C@H](C(=O)NCC(C)(C)C(N)=O)C(C)C)C(C)C)ccc1OC
2 | 35 | 60 | 54 | – | 10 | COC(=O)N[C@H](C(=O)N[C@@H](Cc1ccccc1)[C@@H](O)CN(Cc1ccc(-c2ccccn2)cc1)NC(=O)[C@@H](NC(=O)OC)C(C)(C)C)C(C)(C)C [ATAZANAVIR]

— ChEMBL document CHEMBL3217630, “Intramolecular hydrogen bonding to improve membrane permeability and absorption in beyond rule of five chemical space” (Medchemcomm, 2011)
